For the experiment, the system named is coagulation cascade (intrinsic and common pathways of coagulation). Briefly: Partial thromboplastin time (PTT) test of coating agents. It counts as biochemical. The settings on record: for Extension of control PTT (in words): versus the respective solvent control, both concentrations tested. How it is done:
A useful test in determining the hemocompatibility of a reagent is the partial thromboplastin time (PTT) test. The PTT is a test of the intrinsic (factors VIII, IX, XI, and XII) and common (fibrinogen, prothrombin, factors V and X) pathways of coagulation. A mixture of plasma and phospholipid platelet substitute (rabbit brain cephalin) is recalcified and the time required for the appearance of fibrin strands measured.
The PTT was tested to determine whether Compound I or Compound II have the ability to extend the control PTT. A test tube of rabbit brain cephalin (Sigma #RBC) in 0.85% NaCl and a test tube of 0.02 M CaCl2 was brought to 37° C. in a water bath. Dade Ci-trol coagulation control lyophilized plasma (Dade International, Inc., product no. 34224-10) was reconstituted in sterile deionized water. In 10×75 mm glass test tubes, 100 μl reconstituted plasma and 100 μl RBC were mixed and incubated at 37° C. in a water bath for 5 minutes. Next, 50 μl of sample (deionized water, a photocrosslinkable polyvinylpyrrolidone (available from SurModics, Inc., product no. PVO5), or Compound I or II) was added and mixed. While simultaneously starting a stop watch, 100 μl of 0.02 M CaCl2 was added to initiate the clotting cascade. After 40 seconds had passed, the test tubes were shaken lightly, observed for fibrin formation, and the number of seconds was recorded.
All samples were tested in duplicate. The appropriate control PTT, depending upon what solvent in which the reagent was dissolved, was subtracted from the average PTT for the reagent to give the time the control PTT was extended.

Take `O=C(c1ccccc1)c1ccc(COc2cc(S(=O)(=O)[O-])cc(S(=O)(=O)[O-])c2OCc2ccc(C(=O)c3ccccc3)cc2)cc1.[K+].[K+]` [Compound I, 4,5-bis(4-benzoylphenylmethyleneoxy) benzene-1,3-disulfonic acid disodium salt]: the “Extension of control PTT (in words)” value is listed as “considerably extend”.

Regarding `O=C(c1ccccc1)c1ccc(COc2cc(S(=O)(=O)[O-])c(OCc3ccc(C(=O)c4ccccc4)cc3)cc2S(=O)(=O)[O-])cc1.[K+].[K+]` [Compound II, 2,5-bis(4-benzoylphenylmethyleneoxy) benzene-1,4-disulfonic acid dipotassium salt], the “Extension of control PTT (in words)” value is on record as “considerably extend”. For the same molecule, where the note is “higher of the two final concentrations tested, 50% IPA control”, the “Extension of 50% IPA control PTT” value came out at 1 h.
